Assay results reported in paper PMC6265919, “Acylated Aminooligosaccharides with Inhibitory Effects against α-Amylase from Streptomyces sp. HO1518” (Marine Drugs, 2018).

Each molecule was assayed against T1, porcine pancreatic α-amylase (PPA) (Sus scrofa, UniProt P00690) (assay: Porcine pancreatic α-amylase (PPA) inhibitory activity assay (starch-iodine)). Settings: PPA 50 U/mL, 0.2% soluble starch, phosphate buffer pH 6.9, 20 °C, 30 min; averages of three replicates.
T1 sequence (P00690 16-511): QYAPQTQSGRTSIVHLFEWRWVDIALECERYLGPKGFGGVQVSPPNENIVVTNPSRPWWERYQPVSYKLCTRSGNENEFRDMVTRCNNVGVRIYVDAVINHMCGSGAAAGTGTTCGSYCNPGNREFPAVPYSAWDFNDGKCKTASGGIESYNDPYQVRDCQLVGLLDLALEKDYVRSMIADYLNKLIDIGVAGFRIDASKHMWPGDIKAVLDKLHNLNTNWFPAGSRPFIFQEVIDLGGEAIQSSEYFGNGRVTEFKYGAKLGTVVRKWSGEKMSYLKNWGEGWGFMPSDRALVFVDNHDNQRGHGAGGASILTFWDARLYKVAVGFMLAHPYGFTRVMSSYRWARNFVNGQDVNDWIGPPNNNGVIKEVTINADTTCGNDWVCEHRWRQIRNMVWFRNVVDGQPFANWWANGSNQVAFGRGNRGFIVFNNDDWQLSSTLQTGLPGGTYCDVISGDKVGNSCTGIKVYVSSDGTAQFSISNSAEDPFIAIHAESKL
Assay type: biochemical
Method: Porcine pancreatic α-amylase inhibitory (PPA) inhibitory activity assay was carried out reference to the procedure previously described. In brief, 5 μL of enzyme solution (PPA, 50 U/mL) and 10-fold series diluted test sample solution (inhibitors, dissolved in distilled water) were mixed and pre-incubated. 100 μL of 0.2% soluble starch (substrate, dissolved in 100 mM phosphate buffer, pH 6.9) was added and incubated at 20 °C for 30 min. The reaction was terminated by the addition of 20 μL 1 M HCl. The remaining starch was quantified by using the following method: 100 μL of the reaction solution was mixed with 25 μL of Lugol’s iodine solution. The absorption was measured at 630 nm in the 96-well plates. […] The data were imported into GraphPad Prism version 5.0 (GraphPad Software, San Diego, CA, USA, www.graphpad.com) and the IC50 values were calculated by using a standard dose response curve fitting.
For `CC(=O)OC[C@H]1O[C@H](O[C@H]2[C@H](O)[C@@H](O)[C@@H](O[C@H]3[C@H](O)[C@@H](O)[C@@H](O[C@H]4[C@H](O)[C@@H](O)C(O)O[C@@H]4CO)O[C@@H]3CO)O[C@@H]2CO)[C@H](O)[C@@H](O)[C@@H]1O[C@H]1O[C@H](C)[C@@H](N[C@H]2C=C(CO)[C@@H](O[C@H]3O[C@H](CO)[C@@H](O[C@H]4O[C@H](C)[C@@H](N[C@H]5C=C(CO)[C@@H](O)[C@H](O)[C@H]5O)[C@H](O)[C@H]4O)[C@H](O)[C@H]3O)[C@H](O)[C@H]2O)[C@H](O)[C@H]1O` (stereo partly drawn) [compound 1, D6-O-acetyl-acarviostatin II03], the IC50 was 0.029 ± 0.001 µM.
For `CC(O)CC(=O)OC[C@H]1O[C@H](O[C@H]2[C@H](O)[C@@H](O)[C@@H](O[C@H]3[C@H](O)[C@@H](O)[C@@H](O[C@H]4[C@H](O)[C@@H](O)C(O)O[C@@H]4CO)O[C@@H]3CO)O[C@@H]2CO)[C@H](O)[C@@H](O)[C@@H]1O[C@H]1O[C@H](C)[C@@H](N[C@H]2C=C(CO)[C@@H](O[C@H]3O[C@H](CO)[C@@H](O[C@H]4O[C@H](C)[C@@H](N[C@H]5C=C(CO)[C@@H](O)[C@H](O)[C@H]5O)[C@H](O)[C@H]4O)[C@H](O)[C@H]3O)[C@H](O)[C@H]2O)[C@H](O)[C@H]1O` (stereo partly drawn) [compound 2, D6-O-β-hydroxybutyryl-acarviostatin II03], the IC50 was 0.049 ± 0.016 µM.
For `CC(=O)OC[C@H]1O[C@H](O[C@H]2[C@H](O)[C@@H](O)[C@@H](O[C@H]3[C@H](O)[C@@H](O)[C@@H](O[C@H]4[C@H](O)[C@@H](O)C(O)O[C@@H]4CO)O[C@@H]3CO)O[C@@H]2CO)[C@H](O)[C@@H](O)[C@@H]1O[C@H]1O[C@H](C)[C@@H](N[C@H]2C=C(CO)[C@@H](O)[C@H](O)[C@H]2O)[C@H](O)[C@H]1O` (stereo partly drawn) [compound 3, D6-O-acetyl-acarviostatin I03], the IC50 was 0.693 ± 0.097 µM.
`CCC(=O)OC[C@H]1O[C@H](O[C@H]2[C@H](O)[C@@H](O)[C@@H](O[C@H]3[C@H](O)[C@@H](O)[C@@H](O[C@H]4[C@H](O)[C@@H](O)C(O)O[C@@H]4CO)O[C@@H]3CO)O[C@@H]2CO)[C@H](O)[C@@H](O)[C@@H]1O[C@H]1O[C@H](C)[C@@H](N[C@H]2C=C(CO)[C@@H](O)[C@H](O)[C@H]2O)[C@H](O)[C@H]1O` (stereo partly drawn) [compound 4, D6-O-propionyl-acarviostatin I03] showed an IC50 of 0.625 ± 0.024 µM.
Molecule `CC(O)CC(=O)OC[C@H]1O[C@H](O[C@H]2[C@H](O)[C@@H](O)[C@@H](O[C@H]3[C@H](O)[C@@H](O)[C@@H](O[C@H]4[C@H](O)[C@@H](O)C(O)O[C@@H]4CO)O[C@@H]3CO)O[C@@H]2CO)[C@H](O)[C@@H](O)[C@@H]1O[C@H]1O[C@H](C)[C@@H](N[C@H]2C=C(CO)[C@@H](O)[C@H](O)[C@H]2O)[C@H](O)[C@H]1O` (stereo partly drawn) [compound 5, D6-O-β-hydroxybutyryl-acarviostatin I03] has an IC50 of 0.495 ± 0.063 µM.
For `C[C@H]1O[C@H](O[C@H]2[C@H](O)[C@@H](O)[C@@H](O[C@H]3[C@H](O)[C@@H](O)[C@@H](O[C@H]4[C@H](O)[C@@H](O)[C@@H](O[C@H]5[C@H](O)[C@@H](O)C(O)O[C@@H]5CO)O[C@@H]4CO)O[C@@H]3CO)O[C@@H]2CO)[C@H](O)[C@@H](O)[C@@H]1N[C@H]1C=C(CO)[C@@H](O[C@H]2O[C@H](CO)[C@@H](O[C@H]3O[C@H](C)[C@@H](N[C@H]4C=C(CO)[C@@H](O)[C@H](O)[C@H]4O)[C@H](O)[C@H]3O)[C@H](O)[C@H]2O)[C@H](O)[C@H]1O` (stereo partly drawn) [compound 6, acarviostatin II03], the IC50 was 0.029 ± 0.004 µM.
